This series is described as follows: Water dispersability, visual evaluation. Type of series: physicochemical. The settings on record: quantity corresponding to 50 mg of Coenzyme Q10 in about 40 ml of tap water at room temperature; evaluated visually. As for the experimental part:
The water dispersability of the granulate of the invention was evaluated visually in comparison with unformulated Coenzyme Q10 administered as crystal powder. A quantity of the granulate of the invention corresponding to 50 mg of Coenzyme Q10 was dispersed in about 40 ml of tap water at room temperature. The product formed a very fine and homogeneous cloudy dispersion under mild agitation and no precipitation occurred.

SMILES strings stand for the structures.

In the case of `COC1=C(OC)C(=O)C(C/C=C(\C)CC/C=C(\C)CC/C=C(\C)CC/C=C(\C)CC/C=C(\C)CC/C=C(\C)CC/C=C(\C)CC/C=C(\C)CC/C=C(\C)CCC=C(C)C)=C(C)C1=O` [crystalline Coenzyme Q10, Coenzyme Q10], the water dispersability entry is “the powder remained on the surface of water”.

The record behind these values is EP3165218A1, “WATER DISPERSIBLE GRANULATES CONTAINING OXIDIZED OR REDUCED FORMS OF COENZYME Q10” (INDENA S.p.A., priority 2015, dated 2017).
